EP0373994A1, “Mutants of simian transforming growth factor-beta 1” (ONCOGEN LIMITED PARTNERSHIP, priority 1988, dated 1990)
Read-outs that look alike come from different tables or passages of the source. Values belong to the compound of their own block, whether it stands above or below them.

Columns and labels:
[1] = test system: TGF-β1 secretion by CHO cell line TGF-β3-2000 clone 17; assay: Secretion of TGF-β1 by transfected CHO cells treated with glycosylation inhibitors (pulse-chase, densitometry); format: cell-based, Chinese hamster
[2] = test system: proteolytic processing of TGF-β1 precursor in TGF-β3-2000 clone 17 CHO cells; assay: Proteolytic processing of TGF-β1 precursor in CHO cells treated with weak bases or ionophore; format: cell-based, Chinese hamster
[3] = target: T1, CHO cells overexpressing the human IGF-II/man6P receptor (Homo sapiens, UniProt P11717); assay: Binding to CHO cells overexpressing the receptor
T1 construct: expressed in transfected cells; host or cells: CHO cells
Description: Binding and internalization studies with transfected and control CHO cells were performed in 24-well culture plates. Confluent cells were washed and incubated for 5 hours at 4°C with the labeled ligand in 0.3 ml of binding buffer (100 mM Hepes, pH 7.6, 120 mM NaCl, 1.2 mM MgSO₄, 15 mM sodium acetate, 5 mM glucose). Cells were then washed twice, lysed with 0.1% sodium docecyl sulfate and counted. For the internalization studies, labeled ligand was added to the cells in serum-free Ham's F-12 medium containing 0.1% bovine serum albumin and 20 mM Hepes, pH 7.6. After the indicated periods of time at 37°C, the cells were put on ice and washed with pre-cooled Hepes buffered saline containing 0.3 mM CaCl₂. […] The cells were then washed, solubilized, and counted as above.

[4] = target: human mannose 6-phosphate/IGF-II receptor (Homo sapiens, UniProt P11717); assay: Solid phase receptor assay, binding of 125I-TGF-β1 precursor to purified receptor
[5] = target: T2, IGF-II/man6P receptor on adipocytes (Rattus norvegicus, UniProt G3V824); assay: Binding to rat adipocytes with or without insulin pretreatment; conditions: 3mM, read-out: inhibition of TGF-β1 precursor binding
T2 construct: from tissue; host or cells: primary adipocytes from epididymal fat pads of male Sprague-Dawley rats
Description: The epididymal fat pads from male Sprague-Dawley rats (180-220 g) were excised, minced, and collagenase-digested as described (Rodberg, 1964, J. Biol. Chem. 239:375-380). The isolated adipocytes were pre-incubated with or without 1 µM insulin for 10 min at 37°C in 0.7 ml Krebs-Ringer buffer (107 mM NaCl, 5mM KCl, 3mM CaCl₂, 1mM MgSO₄, 7 mM NaHCO₃, 10 mM glucose, and 20 mM Hepes, pH 7.8) with 3% bovine serum albumin. The indicated labeled ligand was added and the incubations continued for 45 minutes at 37°. The cells were separated from the media by centrifugation through silicon oil and the radioactivity in the cell layer counted.

T1 sequence (P11717 41-2491): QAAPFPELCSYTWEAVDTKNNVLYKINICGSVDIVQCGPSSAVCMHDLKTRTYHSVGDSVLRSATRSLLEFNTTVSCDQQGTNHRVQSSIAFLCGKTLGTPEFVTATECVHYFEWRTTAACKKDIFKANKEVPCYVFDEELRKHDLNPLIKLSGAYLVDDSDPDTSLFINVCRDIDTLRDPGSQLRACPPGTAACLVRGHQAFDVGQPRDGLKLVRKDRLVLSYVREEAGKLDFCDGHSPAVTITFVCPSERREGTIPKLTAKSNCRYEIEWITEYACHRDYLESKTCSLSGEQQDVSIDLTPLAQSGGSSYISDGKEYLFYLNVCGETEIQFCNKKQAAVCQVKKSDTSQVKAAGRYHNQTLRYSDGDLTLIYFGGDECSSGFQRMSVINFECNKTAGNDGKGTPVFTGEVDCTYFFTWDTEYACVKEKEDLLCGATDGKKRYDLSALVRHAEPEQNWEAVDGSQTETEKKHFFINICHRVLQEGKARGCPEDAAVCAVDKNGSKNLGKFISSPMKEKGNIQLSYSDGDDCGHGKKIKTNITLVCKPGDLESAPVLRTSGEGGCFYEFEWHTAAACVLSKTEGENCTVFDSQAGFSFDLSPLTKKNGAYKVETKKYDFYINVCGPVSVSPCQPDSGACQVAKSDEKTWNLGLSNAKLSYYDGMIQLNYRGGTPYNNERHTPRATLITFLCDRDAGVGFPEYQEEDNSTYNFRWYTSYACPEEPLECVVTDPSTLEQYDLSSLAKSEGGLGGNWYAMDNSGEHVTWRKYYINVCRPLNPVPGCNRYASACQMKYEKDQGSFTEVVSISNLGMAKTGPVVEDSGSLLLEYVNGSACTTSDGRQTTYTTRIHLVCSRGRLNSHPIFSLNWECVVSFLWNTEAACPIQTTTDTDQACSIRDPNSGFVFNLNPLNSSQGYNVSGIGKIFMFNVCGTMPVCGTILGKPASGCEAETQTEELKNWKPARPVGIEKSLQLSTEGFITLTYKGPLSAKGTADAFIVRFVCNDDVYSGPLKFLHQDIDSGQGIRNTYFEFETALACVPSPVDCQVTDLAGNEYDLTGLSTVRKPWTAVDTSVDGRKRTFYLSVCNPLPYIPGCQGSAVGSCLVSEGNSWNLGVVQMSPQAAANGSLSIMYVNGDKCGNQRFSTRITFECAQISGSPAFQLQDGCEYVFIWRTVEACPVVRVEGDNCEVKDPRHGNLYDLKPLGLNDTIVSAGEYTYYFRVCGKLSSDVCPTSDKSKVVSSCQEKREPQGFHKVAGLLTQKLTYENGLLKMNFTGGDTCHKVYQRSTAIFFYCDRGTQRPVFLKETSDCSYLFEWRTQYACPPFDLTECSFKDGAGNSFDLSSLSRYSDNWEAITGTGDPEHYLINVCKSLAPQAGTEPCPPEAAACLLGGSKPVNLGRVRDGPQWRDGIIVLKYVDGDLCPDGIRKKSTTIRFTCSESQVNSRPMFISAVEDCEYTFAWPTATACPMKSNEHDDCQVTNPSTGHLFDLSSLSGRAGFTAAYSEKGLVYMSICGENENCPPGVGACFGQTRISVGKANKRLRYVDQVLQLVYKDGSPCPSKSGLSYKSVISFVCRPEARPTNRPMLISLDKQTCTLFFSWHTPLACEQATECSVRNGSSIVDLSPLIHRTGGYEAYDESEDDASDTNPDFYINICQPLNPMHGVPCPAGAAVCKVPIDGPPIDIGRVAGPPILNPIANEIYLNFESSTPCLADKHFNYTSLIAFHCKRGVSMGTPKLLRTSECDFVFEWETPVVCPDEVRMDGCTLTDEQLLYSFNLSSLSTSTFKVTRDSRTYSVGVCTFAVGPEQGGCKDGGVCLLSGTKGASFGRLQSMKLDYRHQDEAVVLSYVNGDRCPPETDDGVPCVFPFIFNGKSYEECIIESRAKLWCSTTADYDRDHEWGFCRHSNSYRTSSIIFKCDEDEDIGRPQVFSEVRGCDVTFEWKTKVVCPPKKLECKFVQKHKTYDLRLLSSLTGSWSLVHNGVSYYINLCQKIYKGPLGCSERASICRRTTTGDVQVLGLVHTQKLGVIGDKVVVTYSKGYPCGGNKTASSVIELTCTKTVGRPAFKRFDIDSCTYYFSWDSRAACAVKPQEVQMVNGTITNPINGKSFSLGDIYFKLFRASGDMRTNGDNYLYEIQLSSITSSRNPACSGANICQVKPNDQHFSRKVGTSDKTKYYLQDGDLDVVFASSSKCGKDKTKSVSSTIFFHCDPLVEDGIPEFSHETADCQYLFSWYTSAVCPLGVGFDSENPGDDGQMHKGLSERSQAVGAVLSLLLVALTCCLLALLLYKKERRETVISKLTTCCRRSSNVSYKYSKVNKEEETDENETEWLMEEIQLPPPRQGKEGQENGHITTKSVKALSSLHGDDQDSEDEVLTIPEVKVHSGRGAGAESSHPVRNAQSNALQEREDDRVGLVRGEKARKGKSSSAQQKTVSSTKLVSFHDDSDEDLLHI
T2 sequence (G3V824 36-2481): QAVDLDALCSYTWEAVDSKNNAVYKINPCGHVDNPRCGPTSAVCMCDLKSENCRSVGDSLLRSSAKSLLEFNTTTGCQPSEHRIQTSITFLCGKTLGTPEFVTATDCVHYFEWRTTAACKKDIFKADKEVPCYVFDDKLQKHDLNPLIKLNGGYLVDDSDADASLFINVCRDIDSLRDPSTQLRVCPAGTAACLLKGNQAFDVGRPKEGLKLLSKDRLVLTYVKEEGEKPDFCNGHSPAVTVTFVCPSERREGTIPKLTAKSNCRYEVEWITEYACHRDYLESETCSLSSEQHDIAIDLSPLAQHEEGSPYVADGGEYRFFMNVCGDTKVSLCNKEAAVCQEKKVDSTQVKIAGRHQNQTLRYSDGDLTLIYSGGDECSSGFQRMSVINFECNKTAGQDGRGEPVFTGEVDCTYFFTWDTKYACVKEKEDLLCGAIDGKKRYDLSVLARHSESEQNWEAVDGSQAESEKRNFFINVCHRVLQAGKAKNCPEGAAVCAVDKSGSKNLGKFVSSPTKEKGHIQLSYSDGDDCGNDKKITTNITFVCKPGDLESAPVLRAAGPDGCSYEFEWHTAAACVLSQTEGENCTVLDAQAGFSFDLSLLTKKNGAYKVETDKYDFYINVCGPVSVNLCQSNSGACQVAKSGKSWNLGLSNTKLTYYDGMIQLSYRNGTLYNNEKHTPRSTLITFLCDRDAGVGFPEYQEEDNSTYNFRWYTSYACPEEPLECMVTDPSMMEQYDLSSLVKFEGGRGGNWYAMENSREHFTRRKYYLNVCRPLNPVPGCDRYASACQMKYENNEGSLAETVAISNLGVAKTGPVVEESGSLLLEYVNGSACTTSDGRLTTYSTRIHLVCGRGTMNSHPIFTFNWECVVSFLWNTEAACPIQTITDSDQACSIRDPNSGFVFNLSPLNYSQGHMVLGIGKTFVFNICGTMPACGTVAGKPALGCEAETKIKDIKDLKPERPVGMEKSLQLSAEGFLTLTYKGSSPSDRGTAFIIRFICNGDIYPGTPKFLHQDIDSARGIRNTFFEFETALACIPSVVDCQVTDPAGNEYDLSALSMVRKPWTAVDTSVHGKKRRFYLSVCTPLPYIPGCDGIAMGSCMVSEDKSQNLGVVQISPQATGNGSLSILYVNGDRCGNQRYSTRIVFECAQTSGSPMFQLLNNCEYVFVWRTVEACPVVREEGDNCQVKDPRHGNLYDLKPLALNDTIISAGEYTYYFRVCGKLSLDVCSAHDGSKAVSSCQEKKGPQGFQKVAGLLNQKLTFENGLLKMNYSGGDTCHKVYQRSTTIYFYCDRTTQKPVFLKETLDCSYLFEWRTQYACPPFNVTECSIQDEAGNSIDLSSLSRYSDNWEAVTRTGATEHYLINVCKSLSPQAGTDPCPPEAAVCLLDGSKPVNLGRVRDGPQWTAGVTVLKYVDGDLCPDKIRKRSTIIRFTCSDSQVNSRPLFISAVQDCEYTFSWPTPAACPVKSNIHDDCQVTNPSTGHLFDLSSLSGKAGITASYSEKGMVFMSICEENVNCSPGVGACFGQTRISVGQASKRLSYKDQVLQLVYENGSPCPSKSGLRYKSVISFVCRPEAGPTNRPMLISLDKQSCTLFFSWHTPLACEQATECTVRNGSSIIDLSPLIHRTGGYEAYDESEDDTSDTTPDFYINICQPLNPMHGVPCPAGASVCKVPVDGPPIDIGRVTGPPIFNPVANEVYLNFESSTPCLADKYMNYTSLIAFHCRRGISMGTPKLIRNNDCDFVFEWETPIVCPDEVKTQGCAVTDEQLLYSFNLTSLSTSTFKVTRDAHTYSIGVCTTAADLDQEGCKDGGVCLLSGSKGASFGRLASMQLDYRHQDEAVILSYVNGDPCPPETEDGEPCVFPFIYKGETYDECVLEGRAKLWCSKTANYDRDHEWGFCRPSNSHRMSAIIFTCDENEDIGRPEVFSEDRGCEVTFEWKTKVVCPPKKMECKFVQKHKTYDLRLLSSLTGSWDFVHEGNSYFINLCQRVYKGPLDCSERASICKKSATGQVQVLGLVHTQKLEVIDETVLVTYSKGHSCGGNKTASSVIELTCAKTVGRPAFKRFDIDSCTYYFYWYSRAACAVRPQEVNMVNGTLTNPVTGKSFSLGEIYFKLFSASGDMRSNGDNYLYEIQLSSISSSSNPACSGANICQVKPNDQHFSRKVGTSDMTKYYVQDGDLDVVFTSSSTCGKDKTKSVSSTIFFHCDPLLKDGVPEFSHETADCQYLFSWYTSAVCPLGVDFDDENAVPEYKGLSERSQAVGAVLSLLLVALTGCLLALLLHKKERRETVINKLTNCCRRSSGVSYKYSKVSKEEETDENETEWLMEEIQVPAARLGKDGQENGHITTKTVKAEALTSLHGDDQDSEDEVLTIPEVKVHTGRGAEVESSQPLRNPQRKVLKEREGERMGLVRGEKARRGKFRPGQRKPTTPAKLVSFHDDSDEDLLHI
Sequence of human mannose 6-phosphate/IGF-II receptor (P11717 41-2491): as the sequence (P11717 41-2491) above

Compound: O[C@H]1[C@H](O)[C@@H](O)CN2CC[C@H](O)[C@H]12 [CA, castanospermine]
- activity at 520 µM ([1]; Cricetulus griseus, CHO, 6 h, read-out: level of secretion relative to control cells): 5 to 15%

Compound: CCN(CC)CCCC(C)Nc1ccnc2cc(Cl)ccc12 (stereo not drawn) [Chloroquine, Chloroquine diphosphate]
- activity at 200 µM ([2]; Cricetulus griseus, CHO, 6 h chase, 10mM ammonium chloride, 200 µM chloroquine, 1 µM monensin, read-out: cleavage efficiency (proteolytic processing) relative to control values): ~20%

Compound: O=P(O)(O)OC1O[C@H](CO)[C@@H](O)[C@H](O)[C@@H]1O (stereo partly drawn) [Mannose 1-phosphate, mannose 1-phosphate]
- times less effective than man6P at inhibiting binding of the TGF-β1 precursor ([3]; FIG. 37A): at least 1,000 times

Compound: O[C@H]1[C@H]2[C@H](O)CCCN2C[C@H]1O [SW, swainsonine]
- activation at 230 µM ([1]; Cricetulus griseus, CHO, 6 h, read-out: increase in levels of secreted recombinant proteins): ~30%

Compound: OC[C@H]1NC[C@@H](O)[C@@H](O)[C@@H]1O [dMM, 1-deoxymannojirimycin]
- activation at 4000 µM ([1]; Cricetulus griseus, CHO, 6 h chase, 0.23 mM SW, 4 mM dMM, read-out: increase in levels of secreted recombinant proteins): ~30%

Compound: OC[C@H]1NC[C@H](O)[C@@H](O)[C@@H]1O [dN, 1-deoxynojirimycin]
- activity at 4000 µM ([1]; Cricetulus griseus, CHO, 6 h chase, 6 µM TU, 0.52 mM CA, 4 mM dN, read-out: level of secretion relative to control cells): 5 to 15%

- IC50 ([3]; FIG. 37A, read-out: half-maximal inhibition of TGF-β1 precursor binding to transfected CHO cells): 10 µM
- IC50 ([3]; read-out: half-maximal inhibition of rTGF-β1 precursor binding to transfected CHO cells): 10 µM
- inhibition at 50 µM ([4]; 50µM competitor, read-out: inhibition of 125I-labeled TGF-β1 precursor binding to purified receptor): 90%
- IC50 ([4]; read-out: half-maximal inhibition of binding to the isolated receptor): 8 µM
- inhibition at 3000 µM ([5]; control adipocytes): 65%
- inhibition at 3000 µM ([5]; insulin-treated adipocytes): 81%
Compound: O=P(O)(O)OC[C@H]1OC(O)[C@@H](O)[C@@H](O)[C@@H]1O (stereo partly drawn) [mannose 6-phosphate]

Compound: CC[C@@]1([C@@H]2O[C@@H]([C@H]3O[C@@](O)(CO)[C@H](C)C[C@@H]3C)C[C@@H]2C)CC[C@H]([C@]2(C)CC[C@]3(C[C@H](O)[C@@H](C)[C@@H]([C@@H](C)[C@@H](OC)[C@H](C)C(=O)O)O3)O2)O1 [monensin]
- cleavage efficiency (proteolytic processing) relative to control values [2]: ~20%

Compound: ammonium chloride
- cleavage efficiency (proteolytic processing) relative to control values ([2]; 6 h chase, 10mM ammonium chloride, 200 µM chloroquine, 1 µM monensin): about 70%

Compound: tunicamycin
- level of secretion relative to control cells ([1]; 6 h chase, 6 µM TU, 0.52 mM CA, 4 mM dN): 5-15%
